Each structure is given as a SMILES string.

The record followed here is ChEMBL document CHEMBL3112562, “Structure-activity relationships of N-substituted 4-(trifluoromethoxy)benzamidines with affinity for GluN2B-containing NMDA receptors” (Bioorg Med Chem Lett, 2014).

In the assay the target is Glutamate receptor ionotropic, NMDA 2B (Rattus norvegicus, UniProt Q00960). Kind of assay: Displacement of [3H]ifenprodil from Wistar rat GluN2B receptor after 2 hrs by liquid scintillation spectrometry.
Chain of Glutamate receptor ionotropic, NMDA 2B (Q00960 whole entry): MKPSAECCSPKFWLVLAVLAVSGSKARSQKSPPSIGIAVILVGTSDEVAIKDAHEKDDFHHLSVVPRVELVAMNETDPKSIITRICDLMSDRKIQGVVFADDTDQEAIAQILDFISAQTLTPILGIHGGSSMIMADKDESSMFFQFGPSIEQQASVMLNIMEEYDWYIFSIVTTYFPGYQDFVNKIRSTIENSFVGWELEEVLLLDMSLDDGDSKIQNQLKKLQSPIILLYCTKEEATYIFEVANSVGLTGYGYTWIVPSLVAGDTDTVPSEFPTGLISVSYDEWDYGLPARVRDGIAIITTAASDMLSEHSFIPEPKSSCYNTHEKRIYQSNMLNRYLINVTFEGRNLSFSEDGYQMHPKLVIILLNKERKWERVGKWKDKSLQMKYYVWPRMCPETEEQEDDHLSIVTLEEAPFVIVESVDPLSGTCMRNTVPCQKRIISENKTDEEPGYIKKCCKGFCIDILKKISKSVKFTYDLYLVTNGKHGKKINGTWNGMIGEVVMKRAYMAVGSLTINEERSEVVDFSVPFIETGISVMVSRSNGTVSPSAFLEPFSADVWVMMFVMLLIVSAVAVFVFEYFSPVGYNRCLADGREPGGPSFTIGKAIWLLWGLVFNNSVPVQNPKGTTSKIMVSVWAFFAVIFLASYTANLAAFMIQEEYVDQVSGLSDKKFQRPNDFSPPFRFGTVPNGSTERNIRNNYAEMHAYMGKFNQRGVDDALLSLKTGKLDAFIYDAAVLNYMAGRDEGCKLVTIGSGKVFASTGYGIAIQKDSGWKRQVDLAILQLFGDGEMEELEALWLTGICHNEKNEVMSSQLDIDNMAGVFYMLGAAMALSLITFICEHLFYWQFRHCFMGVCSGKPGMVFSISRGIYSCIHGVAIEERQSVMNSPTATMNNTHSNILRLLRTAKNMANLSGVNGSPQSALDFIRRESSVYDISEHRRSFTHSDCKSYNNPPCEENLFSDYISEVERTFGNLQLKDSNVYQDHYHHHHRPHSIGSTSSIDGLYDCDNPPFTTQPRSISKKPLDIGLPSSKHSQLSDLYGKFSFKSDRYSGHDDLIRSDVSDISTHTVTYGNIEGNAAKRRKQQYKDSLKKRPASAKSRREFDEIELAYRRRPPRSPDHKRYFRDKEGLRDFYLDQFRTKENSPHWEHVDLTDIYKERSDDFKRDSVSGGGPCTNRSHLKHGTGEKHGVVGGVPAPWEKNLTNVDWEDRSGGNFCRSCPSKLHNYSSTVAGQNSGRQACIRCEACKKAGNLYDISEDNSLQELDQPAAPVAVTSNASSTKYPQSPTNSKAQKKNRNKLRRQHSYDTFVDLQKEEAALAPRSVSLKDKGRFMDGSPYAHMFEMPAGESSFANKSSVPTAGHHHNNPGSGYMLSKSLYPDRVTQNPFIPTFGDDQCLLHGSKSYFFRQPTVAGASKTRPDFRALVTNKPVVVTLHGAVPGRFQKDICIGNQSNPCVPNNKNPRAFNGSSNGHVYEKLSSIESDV
With `NC(=NCc1ccccc1C(F)(F)F)c1ccc(OC(F)(F)F)cc1`, the affinity corresponds to a Ki of 8.09 nM.

Take `COc1ccccc1C/N=C(\N)c1ccc(OC(F)(F)F)cc1`: the Ki amounted to 2.09 nM.

Consider `NC(=NCC12CC3CC(CC(C3)C1)C2)c1ccc(OC(F)(F)F)cc1`, for which the Ki amounted to 4810 nM.

For the compound `N=C(NCC12C3C4C5C3C1C5C42)c1ccc(OC(F)(F)F)cc1` (stereo not drawn), the inhibition constant (Ki) was 150 nM.

Turning to `NC(=NCc1cc(F)cc(F)c1)c1ccc(OC(F)(F)F)cc1`, the affinity corresponds to a Ki of 3.58 nM.

`N=C(NCc1ccc(F)c(F)c1)c1ccc(OC(F)(F)F)cc1` displayed a Ki of 8.25 nM.

Turning to `N=C(NCc1cccc(F)c1)c1ccc(OC(F)(F)F)cc1`, the Ki worked out at 2.86 nM.

Consider `N=C(NCc1ccc2c(c1)OCO2)c1ccc(OC(F)(F)F)cc1`, for which the affinity, expressed as Ki, was 26.3 nM.

Compound `COc1cccc(CNC(=N)c2ccc(OC(F)(F)F)cc2)c1OC` had a Ki of 303 nM.

As to `COc1ccc(CNC(=N)c2ccc(OC(F)(F)F)cc2)c(OC)c1`, the Ki was 16.2 nM.

`COc1ccc(OC)c(CNC(=N)c2ccc(OC(F)(F)F)cc2)c1` returned a Ki of 4.29 nM.

The compound `COc1cc(CNC(=N)c2ccc(OC(F)(F)F)cc2)cc(OC)c1` registered a Ki of 22.9 nM.

For the compound `COc1cc(CN=C(N)c2ccc(OC(F)(F)F)cc2)cc(OC)c1OC`, the Ki was determined as 1140 nM.

For orientation: Ki means a measure of affinity in units of concentration, obtained from inhibition or displacement.
